What was measured:
[1] = system: L1210 tumor cells; experiment: Antitumor efficacy in L1210 tumor-bearing CDF1 mice (increase in life span); format: in vivo
Protocol: In the following test, antitumor efficacy studies were performed using 8-9 weeks old female CDF1 mice, the average weight of the animal is 20-25 grams. L1210 tumor cells (about 10^5 cells per mouse) were inoculated intraperitoneally. The fluorine-containing water-soluble platinum complexes were used to treat the tumor-bearing animals and the efficacy was compared compared with the clinical platinum antitumor drugs. […] Drugs were administered intraperitoneally on day 1 and day 4 after tumor cell transplantation. The number of experimental animals in each group was 6.
The experimental animals were purchased from Vital River Laboratory Animal Technology Co. Ltd., Tumor cells L1210-leukemia cells were purchased from Shanghai An Yan Commercial Trade Co. Ltd.
The increase in life span (ILS) is calculated as follows:
Wherein, St=the weighted median survival time of treated animals; Su=the weighted median survival time of untreated animals

[2] = cited from earlier work
[3] = 24 mg/Kg i.p. on day 1 and day 4
[4] = 40 mg/Kg i.p. on day 1 and day 4
[5] = 80 mg/Kg i.p. on day 1 and day 4

N.N.O=C([O-])C1(C(=O)[O-])CCC1.[Pt+2] [Carboplatin]
ILS (%) [1, 3]: 10% | Survived Animals on Day 42 [1, 3]: 0/6 | Weight Changes (g) ([1]; 24 mg/Kg i.p. on day 1 and day 4, weight changes from the first day to the seventh day): +0 g | ILS (%) [1, 4]: 24% | Survived Animals on Day 42 [1, 4]: 0/6 | Weight Changes ([1]; 40 mg/Kg i.p. on day 1 and day 4, weight changes from the first day to the seventh day): -0.3 g | ILS (%) [1, 5]: 55% | Survived Animals on Day 42 [1, 5]: 1/6 | Weight Changes ([1]; 80 mg/Kg i.p. on day 1 and day 4, weight changes from the first day to the seventh day): -1.2 g | water solubility [2]: 17 mg/mL

Source: patent US20140349955A1, “USE OF FLUORINE-CONTAINING WATER SOLUBLE PLATINUM COMPLEX IN PREPARING DRUGS FOR PREVENTION AND TREATMENT OF CANCERS” (GUDUI BIOPHARMA TECHNOLOGY INC., priority 2011, published 2014)
